Experimental data from patent publication US8501806B2, “Methods for preventing or reducing colon carcinogenesis” (Nogra Pharma Limited, priority 2008, dated 2013).

Assays:
[1] = tested on: established CT26-derived tumors; assay: Growth of established CT26 xenografts; assay type: in vivo, Balb/c mice; settings: subcutaneously 80 mg/kg mouse/day for 2 weeks from day 14
Method: CT26 cells (1×10^5 cells in 300 μl PBS 1×) were injected subcutaneously into the flank of Balb/c mice, whose fur was shaved and depilated. Five groups of 10 mice each were implanted with CT26. The first group received daily subcutaneously 300 μl PBS (control), the remaining groups received daily subcutaneously compound 14 at a final dose of 1, 4, 8, or 12 mg/kg/mouse dissolved in 300 μl PBS. Both compound 14 and PBS were administered starting on day 3. Further experimentation was performed to assess whether compound 14 had anti-cancer activity when administered systemically. […] Mice were monitored over the time for weight loss. After 2 weeks, mice were sacrificed, tumors were photographed, then excised and their mass calculated according to the following formula: ½×(short diameter)×(long diameter)×(height). Total extracts were prepared from xenografts and analyzed for cyclin D1 protein content by Western blotting using a commercially available antibody (Santa Cruz Biotechnology). […] After 2 weeks, mice with similar tumor size, determined by caliper measurements, were divided into three groups of 8 mice each. […] Mice were monitored over the time for weight loss. After 2 weeks, mice were sacrificed, tumors were photographed, then excised and their mass calculated as described above. […] Mice were monitored over the time and sacrificed at day 28.

[2] = tested on: HCT-116 cells; assay: CFSE cell proliferation assay, HCT-116 cells; assay type: cell-based, human; settings: equivalent concentrations; data not shown
Method: All reagents used in Examples 1-3 were from Sigma-Aldrich (Milan, Italy) unless specified. Compounds were dissolved as a 25 mM stock solution in culture medium, and the pH of the solution was adjusted to 7.4, if necessary, with NaOH. The human CRC cell lines, HCT-116 and HT-29 (expressing either wild-type or mutated p53 respectively), were maintained in McCoy's 5A supplemented with 10% fetal bovine serum (FBS), 1% penicillin/streptomycin, and 50 μg/ml gentamycin. The murine CRC cell line, CT26, was maintained in RPMI 1640 medium supplemented with 10% FBS and 1% penicillin/streptomycin.
For cell growth assays, serum-starved HCT-116, HT-29, and CT26 cells were plated in appropriate complete medium at 2×10^5 cells/ml/well in 6-well culture dishes and allowed to adhere overnight. Cells were then labeled with carboxyfluorescein diacetate succinimidyl ester (CFSE) (Invitrogen, Milan Italy) at 37° C. according to the manufacturer's instruction. After 30 minutes, the medium was removed and fresh media containing 0.05% bovine serum albumin (BSA), and increasing doses of 5-ASA or disclosed compounds were added. After 24 hours, cells were collected, washed twice with PBS 1×, and then incubated with 5 μg/ml of PI for 15 minutes, at 4° C. in the dark. CFSE and/or PI-positive cells were determined by flow cytometry (Becton Dickinson, FACSCalibur, Milan, Italy). To determine whether the negative effect of compound 14 (2-methoxy-5-amino-N-hydroxybenzamide) on proliferation was reversible, cells were cultured in the presence or absence of compound 14 (1.5 and 3 mM) for 24 hours (1st culture). Afterwards, cells were either left untreated or extensively washed and cultured with medium in the absence of compound 14 for additional 24 hours (2nd culture). The percentage of proliferating cells was then evaluated by flow cytometry.

Row | Compound | tumor size of established CT26-derived tumors vs PBS [1] | effect on cell proliferation (osmotic control) [2]
1 | Nc1ccc(O)c(C(=O)O)c1 [5-ASA, 5-amino salicylic acid, reference compound] | not 5-ASA significantly reduced | –
2 | OC[C@@H](O)[C@@H](O)[C@H](O)[C@H](O)CO [mannitol, reference compound] | – | No effect
